# Numbered stars: 1 amine (or outer) side, 2 acyl side, 3 side chain; on linkers, the order of the positions; unused ones are H or OH. Square brackets hold non-standard residues; d marks the D form. Peptide text beside a SMILES is read from it. * marks the point of attachment. Fmoc = O=C(OCC1c2ccccc2-c2ccccc21)*; Quinaldoyl = O=C(c1ccc2ccccc2n1)*; X1 = O=C(Cc1ccc(N[*:1])cc1)[*:2]; NH(2-Me-phenyl) = Cc1ccccc1N*; PhAc = O=C(Cc1ccccc1)*; CO = O=C([*:1])[*:2]; Bn = c1ccc(C*)cc1
# Target: T1, VLA4 (Homo sapiens, UniProt P05556+P13612)
# T1 construct: endogenous in cells; host or cells: Ramos cells
# Experiment: Inhibition of VLA4-dependent adhesion to BSA-CS1
# Assay type: cell-based
# Conditions: binding of BCECF-labelled Ramos cells to BSA-CS1 coated wells, 2 mM MnCl2; read-out: IC50
# From the text: For example, the cell adhesion inhibitory activity of these compounds may be measured by determining the concentration of inhibitor required to block the binding of VLA-4-expressing cells to fibronectin- or CS1-coated plates. In this assay microtiter wells are coated with either fibronectin (containing the CS-1 sequence) or CS-1. If CS-1 is used, it must be conjugated to a carrier protein, such as bovine serum albumin, in order to bind to the wells. Once the wells are coated, varying concentrations of the test compound are then added together with appropriately labelled, VLA-4-expressing cells. Alternatively, the test compound may be added first and allowed to incubate with the coated wells prior to the addition of the cells. The cells are allowed to incubate in the wells for at least 30 minutes. Following incubation, the wells are emptied and washed. Inhibition of binding is measured by quantitating the fluorescence or radioactivity bound to the plate for each of the various concentrations of test compound, as well as for controls containing no test compound.
# VLA-4-expressing cells that may be utilized in this assay include Ramos cells, Jurkat cells, A375 melanoma cells, as well as human peripheral blood lymophocytes (PBLs). The cells used in this assay may be fluorescently or radioactively labelled.
# This assay was used to assess the potency of VLA4-directed inhibitory compounds of this invention.
# We dissolved BSA-SMCC (Pierce Chemical, Rockford, Ill.; Catalog #77115) in H2O at a concentration of 10 mg/mL. [SEQ ID NO:4]: […](“Cys-Tyr-CS1 peptide”), which we synthesized by conventional solid phase chemistry and purified by HPLC, was dissolved in 10 mM HEPES pH 5, 50 mM NaCl and 0.1 mM EDTA also at a concentration of 10 mg/mL. We then mixed 500 μL of BSA-SMCC, 250 μL of Cys-Tyr-CS1 peptide and 75 μL of 1 mM HEPES pH 7.5 and allowed the conjugation reaction to proceed for 30 minutes. We stopped the reaction by adding 1 μL of beta-mercaptoethanol. Samples were analyzed for cross-linking by SDS-PAGE.
# We coated the wells of a Linbro titertek polystyrene 96-well flat bottom plate (Flow Laboratories, Maclean, Va.; catalog #76-231-05) with 100 μL of the above-described BSA-CS1 solution diluted to 1 μg/mL in 0.05 M NaHCO3 (15 mM NaHCO3, 35 mM Na2CO3) pH 9.2. Some wells were not coated with CS1 in order to assess non-specific cell binding (NSB). The plate was then incubated overnight at 4° C.
# Following this incubation, the contents of the wells were removed by inverting and blotting the plate. All of the wells were then blocked with 100 μL of 1% BSA in PBS, 0.02% NaN3, for a minimum of one hour at room temperature.
# Ramos cells are grown, maintained and labelled in RPMI 1640 culture medium containing 1% BSA. Just prior to running the assay, we added 2′,7′-bis-(2-carboxyethyl)-5 (and -6) carboxyfluorescein acetoxymethyl ester (“BCECF-AM”; Molecular Probes Inc., Eugene, Oreg.; catalog #B-1150) to a final concentration of 2 μM to a culture of Ramos cells (4×10^6 cells/mL). We incubated the cells for 20 minutes at 37° C.
# Following labelling, the cells were washed twice in assay buffer (24 mM TRIS, 137 mM NaCl, 2.7 mM KCl, pH 7.4, containing 0.1% BSA and 2 mM glucose) to remove any cations originating from the culture medium. The cells were then resuspended in assay buffer to 4×10^6 cells/mL and 2 mM MnCl2 was added to upregulate VLA4 on the surface of the cells.
# Immediately prior to running the assay, we removed the BSA blocking solution from the 96-well plates and washed the wells with 100 μL of assay buffer. We then added to each well 25 μL of test cell adhesion inhibitory compound at 2× the final concentration and 25 μL of the labelled Ramos cells. […] Each concentration of compound was tested in triplicate. The compound and cells are allowed to incubate for 30 minutes at room temperature.
# T1 sequence (P13612 34-1032): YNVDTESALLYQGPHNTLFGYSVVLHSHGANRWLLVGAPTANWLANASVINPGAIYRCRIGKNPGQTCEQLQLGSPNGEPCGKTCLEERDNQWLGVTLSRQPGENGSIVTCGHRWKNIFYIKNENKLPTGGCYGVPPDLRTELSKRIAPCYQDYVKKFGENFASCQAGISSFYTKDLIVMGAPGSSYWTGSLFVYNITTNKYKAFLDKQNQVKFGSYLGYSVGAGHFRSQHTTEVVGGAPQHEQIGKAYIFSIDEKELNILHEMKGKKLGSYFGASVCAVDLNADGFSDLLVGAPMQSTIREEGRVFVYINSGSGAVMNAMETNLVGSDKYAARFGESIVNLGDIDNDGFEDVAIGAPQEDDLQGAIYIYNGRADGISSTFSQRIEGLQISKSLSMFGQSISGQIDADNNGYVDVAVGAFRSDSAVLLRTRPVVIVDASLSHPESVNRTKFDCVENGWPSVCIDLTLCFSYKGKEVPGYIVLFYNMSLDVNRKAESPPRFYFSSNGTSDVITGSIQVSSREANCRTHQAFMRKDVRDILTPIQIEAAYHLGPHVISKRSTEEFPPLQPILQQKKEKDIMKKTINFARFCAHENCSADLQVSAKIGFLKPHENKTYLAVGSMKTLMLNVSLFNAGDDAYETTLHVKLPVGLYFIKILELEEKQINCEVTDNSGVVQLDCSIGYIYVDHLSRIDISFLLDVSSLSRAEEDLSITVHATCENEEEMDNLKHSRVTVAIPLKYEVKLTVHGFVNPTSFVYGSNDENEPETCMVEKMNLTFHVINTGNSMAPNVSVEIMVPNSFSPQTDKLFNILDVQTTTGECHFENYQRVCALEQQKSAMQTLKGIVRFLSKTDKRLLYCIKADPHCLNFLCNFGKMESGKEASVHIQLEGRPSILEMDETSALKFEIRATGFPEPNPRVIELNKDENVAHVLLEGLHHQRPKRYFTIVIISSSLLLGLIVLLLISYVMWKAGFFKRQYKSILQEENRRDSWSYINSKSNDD
# T1 sequence (P05556 21-798): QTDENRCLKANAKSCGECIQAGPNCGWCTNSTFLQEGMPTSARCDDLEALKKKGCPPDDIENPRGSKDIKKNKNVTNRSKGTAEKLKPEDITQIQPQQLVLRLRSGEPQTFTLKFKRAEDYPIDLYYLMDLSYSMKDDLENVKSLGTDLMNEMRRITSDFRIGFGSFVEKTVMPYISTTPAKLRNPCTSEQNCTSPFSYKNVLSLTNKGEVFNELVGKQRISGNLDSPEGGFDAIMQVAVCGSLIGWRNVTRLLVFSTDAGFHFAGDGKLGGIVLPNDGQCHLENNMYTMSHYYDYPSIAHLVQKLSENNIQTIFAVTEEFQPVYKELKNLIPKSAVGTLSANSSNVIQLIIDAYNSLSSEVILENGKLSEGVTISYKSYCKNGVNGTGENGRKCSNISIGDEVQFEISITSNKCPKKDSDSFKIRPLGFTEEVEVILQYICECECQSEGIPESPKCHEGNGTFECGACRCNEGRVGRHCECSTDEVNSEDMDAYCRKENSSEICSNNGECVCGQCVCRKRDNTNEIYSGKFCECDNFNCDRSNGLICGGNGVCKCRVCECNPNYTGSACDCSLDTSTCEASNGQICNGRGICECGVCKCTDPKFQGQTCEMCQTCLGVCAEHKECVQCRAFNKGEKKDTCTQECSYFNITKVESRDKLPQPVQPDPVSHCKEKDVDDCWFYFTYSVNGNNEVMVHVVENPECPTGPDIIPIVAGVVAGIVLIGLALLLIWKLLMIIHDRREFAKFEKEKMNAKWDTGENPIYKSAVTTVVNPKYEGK
row,Compound,IC50 [nM]
1,Cc1ccccc1NC(=O)Nc1ccc(CC(=O)N[C@@H](CC(C)C)C(=O)N2CCC[C@H]2C(=O)N[C@H](C(=O)N[C@@H](CC(=O)O)C(=O)O)C(C)C)cc1 [Compound 341] ({NH(2-Me-phenyl)-CO}-[X1]LPVD-OH),> 10000
2,Cc1ccccc1NC(=O)Nc1ccc(CC(=O)N[C@@H](CCC(N)=O)C(=O)N[C@@H](CC(=O)O)C(=O)N[C@@H](CCC(=O)O)C(N)=O)cc1 [Compound 301],< 50
3,Cc1ccccc1NC(=O)Nc1ccc(CC(=O)N[C@@H](CC(C)C)C(=O)N[C@@H](CC(=O)O)C(=O)N[C@H](C(=O)N2CCC[C@H]2C(=O)N[C@@H](CO)C(=O)O)C(C)C)cc1 [Compound 337] ({NH(2-Me-phenyl)-CO}-[X1]LDVPS-OH),< 50
4,Cc1ccccc1NC(=O)Nc1ccc(CC(=O)NC(CC(C)C)C(=O)NC(CC(=O)O)C(=O)NC(CO)C(N)=O)cc1 (stereo not drawn) [Compound 296],< 50
5,Cc1ccccc1NC(=O)Nc1ccc(CC(=O)N[C@@H](CO)C(=O)N[C@@H](CC(=O)O)C(=O)N[C@H](CO)C(N)=O)cc1 [Compound 285],< 50
6,CC(C)C[C@H](NC(=O)C1COc2ccc(Cl)cc2C1)C(=O)N[C@@H](CC(=O)O)C(=O)N[C@H](C(=O)O)C(C)C (stereo partly drawn) [Compound 386],> 10000
7,Cc1ccccc1NC(=O)Nc1ccc(CC(=O)N2CCC[C@H]2C(=O)N[C@@H](CCC(=O)O)C(=O)O)cc1 [Compound 416],50 to 10000
8,Cc1ccccc1NC(=O)Nc1ccc(CC(=O)N[C@H](CC(C)C)C(=O)N[C@@H](CC(=O)O)C(=O)N[C@@H](CC(C)C)C(N)=O)cc1 [Compound 287],< 50
9,COC(=O)[C@@H](NC(=O)[C@H](CC(=O)O)NC(=O)[C@H](CC(C)C)NC(=O)Cc1ccccc1)[C@@H](C)OCc1ccccc1 [Compound 192] (PhAc-Leu-Asp-Thr(Bn)-OMe),50 to 10000
10,Cc1ccccc1NC(=O)Nc1ccc(CC(=O)N2CCCC2C(=O)NC(CC(=O)O)C(=O)NC(CO)C(N)=O)cc1 (stereo not drawn) [Compound 251],< 50
11,Cc1ccccc1NC(=O)Nc1ccc(CC(=O)N[C@@H](CCC(N)=O)C(=O)N[C@@H](CC(=O)O)C(=O)N[C@H](C(N)=O)[C@@H](C)O)cc1 [Compound 302],< 50
12,CC(C)C[C@H](NC(=O)Cc1ccc(NC(=O)Nc2ccccc2)cc1)C(=O)N[C@@H](CC(=O)O)C(=O)N[C@H](C(=O)O)C(C)C [Compound 203],< 50
13,Cc1ccccc1NC(=O)Nc1ccc(CC(=O)N2CCC[C@H]2C(=O)N[C@@H](CC(=O)O)C(=O)N[C@H](CC(C)C)C(N)=O)cc1 [Compound 244],< 50
14,Cc1ccccc1NC(=O)Nc1ccc(CC(=O)N[C@H](C(=O)N[C@@H](CC(C)C)C(=O)N2CCC[C@H]2C(=O)N[C@@H](CC(=O)O)C(=O)O)C(C)C)cc1 [Compound 339] ({NH(2-Me-phenyl)-CO}-[X1]VLPD-OH),> 10000
15,CC(C)C[C@H](NC(=O)c1coc2c1C(=O)CCC2)C(=O)N[C@@H](CC(=O)O)C(=O)N[C@H](C(=O)O)C(C)C [Compound 371],50 to 10000
16,CC(C)C(NC(=O)C(CC(=O)O)NC(=O)C(NC(=O)c1cc2ccccc2cn1)C1CCCCC1)C(=O)O (stereo not drawn) [Compound 83],> 10000
17,Cc1ccccc1NC(=O)Nc1ccc(CC(=O)N2CCC[C@H]2C(=O)N[C@@H](CCC(=O)O)C(=O)N[C@H](C(N)=O)C(C)C)cc1 [Compound 313],< 50
18,CC(C)CC(NC(=O)c1cc2ccccc2cn1)C(=O)NC(CC(=O)O)C(=O)NCC1CCCCC1 (stereo not drawn) [Compound 11],> 10000
19,CC(C)CC(NC(=O)CCc1ccc(O)cc1)C(=O)NC(CC(=O)O)C(=O)NC(C(=O)N1CCCC1C(=O)O)C(C)C (stereo not drawn) [Compound 38],> 10000
20,Cc1ccccc1NC(=O)Nc1ccc(CC(=O)N[C@H](C(=O)N[C@@H](CC(=O)O)C(=O)N[C@H](CC(N)=O)C(N)=O)[C@@H](C)O)cc1 [Compound 259],< 50

row,Compound,IC50 [nM]
1,CSCC[C@H](NC(=O)[C@@H](NC(=O)[C@H](CC(=O)O)NC(=O)[C@H](CC(C)C)NC(=O)c1ccc2ccccc2n1)C(C)C)C(=O)O [Compound 186] (Quinaldoyl-LDVM-OH),> 10000
2,CC(C)C[C@H](NC(=O)OCC1c2ccccc2-c2ccccc21)C(=O)N[C@@H](CC(=O)O)C(=O)N[C@H](C(=O)O)C(C)C [Compound 366] (Fmoc-Leu-Asp-Val-OH),> 10000
3,Cc1ccccc1NC(=O)Nc1ccc(CC(=O)N[C@@H](CO)C(=O)N[C@@H](CC(=O)O)C(=O)N[C@H](C(N)=O)[C@@H](C)O)cc1 [Compound 280],< 50
4,Cc1ccccc1NC(=O)Nc1ccc(CC(=O)N2CCC[C@H]2C(=O)N[C@@H](CC(=O)O)C(=O)N[C@@H](Cc2c[nH]c3ccccc23)C(N)=O)cc1 [Compound 250],< 50
5,Cc1ccccc1NC(=O)Nc1ccc(CC(=O)N[C@H](CC(C)C)C(=O)N[C@@H](CC(=O)O)C(=O)N[C@@H](CCC(=O)O)C(N)=O)cc1 [Compound 290],< 50
6,Cc1ccccc1NC(=O)Nc1ccc(CC(=O)N[C@@H](CCC(N)=O)C(=O)N[C@@H](CC(=O)O)C(=O)N[C@H](CCC(=O)O)C(N)=O)cc1 [Compound 305],< 50
7,Cc1ccccc1NC(=O)Nc1ccc(CC(=O)N[C@@H](CCC(N)=O)C(=O)N[C@@H](CC(=O)O)C(=O)N[C@@H](CC(C)C)C(N)=O)cc1 [Compound 298],< 50
8,CC(C)C[C@H](NC(=O)COc1ccc2ccccc2c1)C(=O)N[C@@H](CC(=O)O)C(=O)N[C@H](C(=O)O)C(C)C [Compound 395],> 10000
9,Cc1ccccc1NC(=O)Nc1ccc(CC(=O)N[C@@H](CO)C(=O)N[C@@H](CC(=O)O)C(=O)N[C@H](CC(N)=O)C(N)=O)cc1 [Compound 282],< 50
10,CNC(=O)C(NC(=O)C(CC(=O)O)NC(=O)C(Cc1ccc(O)cc1)NC(=O)Cc1ccccc1)C(C)C (stereo not drawn) [Compound 129] (PhAc-Tyr-Asp-Val-NHMe; configuration not given here),> 10000
11,Cc1ccccc1NC(=O)Nc1ccc(CC(=O)N[C@@H](CS)C(=O)N[C@@H](CC(=O)O)C(=O)N[C@H](C(N)=O)C(C)C)cc1 [Compound 274],< 50
12,Cc1ccccc1NC(=O)Nc1ccc(CC(=O)N[C@@H](CC(C)C)C(=O)N[C@@H](CC(=O)O)C(=O)N[C@H](C(N)=O)C(C)C)cc1 [Compound 232],< 50
13,Cc1ccccc1NC(=O)Nc1ccc(CC(=O)N[C@H](C(=O)N[C@@H](CC(=O)O)C(=O)N[C@H](CO)C(N)=O)[C@@H](C)O)cc1 [Compound 262],< 50
14,Cc1ccccc1NC(=O)Nc1ccc(CC(=O)N[C@@H](CC(C)C)C(=O)N[C@@H](CC(=O)O)C(=O)N[C@H](CC(C)C)C(N)=O)cc1 [Compound 233],< 50
15,Cc1ccccc1NC(=O)Nc1ccc(CC(=O)N[C@H](CC(C)C)C(=O)N[C@@H](CC(=O)O)C(=O)N[C@@H](CC(=O)O)C(N)=O)cc1 [Compound 286],< 50
16,Cc1ccccc1NC(=O)Nc1ccc(CC(=O)N2CCC2C(=O)N[C@@H](CC(=O)O)C(=O)N[C@H](CC(C)C)C(=O)O)cc1 (stereo partly drawn) [Compound 412],50 to 10000
17,CSCC[C@H](NC(=O)Cc1ccc(NC(=O)Nc2ccccc2C)cc1)C(=O)N[C@@H](CC(=O)O)C(=O)N[C@H](CO)C(N)=O [Compound 229],< 50
18,CC(C)C[C@H](NC(=O)c1ccc2c(c1)CCO2)C(=O)N[C@@H](CC(=O)O)C(=O)N[C@H](C(=O)O)C(C)C [Compound 387],> 10000
19,Cc1ccccc1NC(=O)Nc1ccc(CC(=O)N[C@H](C(=O)N[C@@H](CC(=O)O)C(=O)N[C@@H](CCC(=O)O)C(N)=O)[C@@H](C)O)cc1 [Compound 256],< 50

# — patent publication US6875743B1, “Cell adhesion inhibitors” (Biogen, Inc., priority 1996, dated 2005)
